The values below come from PubChem BioAssay AID248 (DTP/NCI, 2004).

The experiment has as its system L1210 leukemia ip in BDF1 mice, survival T/C. Put plainly: NCI In Vivo Anticancer Drug Screen. Data for tumor model L1210 Leukemia (intraperitoneal) in B6D2F1 (BDF1) mice. To be noted: endpoint: mean survival time, higher = longer survival. In a few lines:
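Tumor was transplanted into mice, which were then dosed with test compound or vehicle alone. Survival was recorded for each group, and the treated figure was expressed relative to the control figure.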

The mark [1] stands for this setting: dose: 100.0 mg/kg/injection, schedule: Q01DX009 (ip), vehicle: Klucel (hydroxypropylcellulose) (HPC).
Where [2] appears, read: dose: 200.0 mg/kg/injection, schedule: Q01DX009 (ip), vehicle: Klucel (hydroxypropylcellulose) (HPC).
The mark [3] stands for this setting: dose: 400.0 mg/kg/injection, schedule: Q01DX009 (ip), vehicle: Klucel (hydroxypropylcellulose) (HPC).
Setting [4] is: dose: 100.0 mg/kg/injection, schedule: Q04DX003 (ip), vehicle: saline with Tween-80.
Setting [5] is: dose: 200.0 mg/kg/injection, schedule: Q04DX003 (ip), vehicle: saline with Tween-80.
The mark [6] stands for this setting: dose: 400.0 mg/kg/injection, schedule: Q04DX003 (ip), vehicle: saline with Tween-80.

“And” between values parts separate entries of the source, which are not always exact repeats. Equal values may be shown once. Inconclusive results and toxic doses are left out.

Take `CC(O)C(NCNC(=O)C1=C(O)C2(O)C(=O)C3=C(O)c4c(O)cccc4C(C)(O)C3CC2C(N(C)C)C1=O)C(=O)O` (stereo unspecified): the T/C reads like this: (dose: 1.0 mg/kg/injection, schedule: Q01DX Z (ip), vehicle: saline) 110 % of control; (dose: 4.0 mg/kg/injection, schedule: Q01DX Z (ip), vehicle: saline) 100 % of control; (dose: 14.0 mg/kg/injection, schedule: Q01DX Z (ip), vehicle: saline) 91 % of control; (dose: 15.0 mg/kg/injection, schedule: Q01DX Z (ip), vehicle: saline) 96 % of control; (dose: 28.0 mg/kg/injection, schedule: Q01DX Z (ip), vehicle: saline) 102 % of control; (dose: 56.0 mg/kg/injection, schedule: Q01DX Z (ip), vehicle: saline) 91 % of control. Besides, the T/C is 98 % of control (dose: 60.0 mg/kg/injection, schedule: Q01DX Z (ip), vehicle: saline); 98 % of control (dose: 100.0 mg/kg/injection, schedule: Q04DX003 (ip), vehicle: saline); 93 % of control (dose: 120.0 mg/kg/injection, schedule: Q01DX Z (ip), vehicle: saline); 100 % of control (dose: 200.0 mg/kg/injection, schedule: Q04DX003 (ip), vehicle: saline); 91 % of control (dose: 224.0 mg/kg/injection, schedule: Q01DX Z (ip), vehicle: saline); 95 % of control and 98 % of control (dose: 240.0 mg/kg/injection, schedule: Q01DX Z (ip), vehicle: saline). Further, the T/C reads like this: (dose: 400.0 mg/kg/injection, schedule: Q04DX003 (ip), vehicle: saline) 109 % of control; (dose: 448.0 mg/kg/injection, schedule: Q01DX Z (ip), vehicle: saline) 93 % of control; (dose: 480.0 mg/kg/injection, schedule: Q01DX Z (ip), vehicle: saline) 107 % of control.

For the molecule `O=c1c2ccccc2ccc2ccccc12`, the T/C is, setting by setting: (dose: 100.0 mg/kg/injection, schedule: Q01DX001 (ip), vehicle: Klucel (hydroxypropylcellulose) (HPC)) 103 % of control; under setting [1], 97 % of control; (dose: 100.0 mg/kg/injection, schedule: Q04DX003 (ip), vehicle: Klucel (hydroxypropylcellulose) (HPC)) 100 % of control; (dose: 200.0 mg/kg/injection, schedule: Q01DX001 (ip), vehicle: Klucel (hydroxypropylcellulose) (HPC)) 93 % of control; under setting [2], 102 % of control; (dose: 200.0 mg/kg/injection, schedule: Q04DX003 (ip), vehicle: Klucel (hydroxypropylcellulose) (HPC)) 103 % of control. Also, the T/C by setting is: (dose: 400.0 mg/kg/injection, schedule: Q01DX001 (ip), vehicle: Klucel (hydroxypropylcellulose) (HPC)) 103 % of control; under setting [3], 100 % of control; (dose: 400.0 mg/kg/injection, schedule: Q04DX003 (ip), vehicle: Klucel (hydroxypropylcellulose) (HPC)) 105 % of control.

Take `Cc1cc(OC(=O)Nc2cccc(C(F)(F)F)c2)c(C(C)C)cc1Cl`: the T/C reads like this: (dose: 100.0 mg/kg/injection, schedule: Q01DX009 (ip), vehicle: gum acacia) 87 % of control; (dose: 200.0 mg/kg/injection, schedule: Q01DX009 (ip), vehicle: gum acacia) 91 % of control; (dose: 400.0 mg/kg/injection, schedule: Q01DX009 (ip), vehicle: gum acacia) 86 % of control.

Consider `Cc1ccc2c(c1)C(=NCCCN=C1C(=O)Nc3ccc(C)cc31)C(=O)N2`, for which the T/C reads like this: (dose: 100.0 mg/kg/injection, schedule: Q01DX009 (ip), vehicle: saline with Tween-80) 96 % of control; under setting [4], 93 % of control; (dose: 200.0 mg/kg/injection, schedule: Q01DX009 (ip), vehicle: saline with Tween-80) 91 % of control; under setting [5], 102 % of control; (dose: 400.0 mg/kg/injection, schedule: Q01DX009 (ip), vehicle: saline with Tween-80) 98 % of control; under setting [6], 98 % of control.

On to `CCCCC1=Cc2cc3c(cc2C1N(C)C)OCO3` (stereo unspecified), for which the T/C by setting is: (dose: 6.25 mg/kg/injection, schedule: Q04DX002 (ip), vehicle: Klucel (hydroxypropylcellulose) (HPC)) 102 % of control; (dose: 12.5 mg/kg/injection, schedule: Q04DX002 (ip), vehicle: Klucel (hydroxypropylcellulose) (HPC)) 99 % of control; (dose: 25.0 mg/kg/injection, schedule: Q04DX002 (ip), vehicle: Klucel (hydroxypropylcellulose) (HPC)) 95 % of control and 105 % of control; (dose: 100.0 mg/kg/injection, schedule: Q04DX002 (ip), vehicle: Klucel (hydroxypropylcellulose) (HPC)) 92 % of control.

Regarding `O=NN(CCCl)C(=O)Nc1ccc(CC(=O)O)cc1`, the T/C is 154 % of control (dose: 8.0 mg/kg/injection, schedule: Q01DX001 (ip), vehicle: carboxymethylcellulose (CMC)); 189 % of control (dose: 12.0 mg/kg/injection, schedule: Q01DX001 (ip), vehicle: carboxymethylcellulose (CMC)); 226 % of control (dose: 18.0 mg/kg/injection, schedule: Q01DX001 (ip), vehicle: carboxymethylcellulose (CMC)); 236 % of control (dose: 26.0 mg/kg/injection, schedule: Q01DX001 (ip), vehicle: carboxymethylcellulose (CMC)).

`N#Cc1c(F)c(F)c(Oc2c(F)c(F)c(F)c(Oc3c(F)c(F)c(C#N)c(F)c3F)c2F)c(F)c1F`: the T/C by setting is: (dose: 100.0 mg/kg/injection, schedule: Q01DX009 (ip), vehicle: other) 103 % of control; (dose: 100.0 mg/kg/injection, schedule: Q04DX003 (ip), vehicle: other) 100 % of control; (dose: 200.0 mg/kg/injection, schedule: Q01DX009 (ip), vehicle: other) 100 % of control; (dose: 200.0 mg/kg/injection, schedule: Q04DX003 (ip), vehicle: other) 97 % of control and 100 % of control; (dose: 400.0 mg/kg/injection, schedule: Q04DX003 (ip), vehicle: other) 86 % of control.

For `CC(=O)C1C(=O)N(C)C(=O)N(C)C1=O`, the T/C (dose: 75.0 mg/kg/injection, schedule: Q01DX001 (ip), vehicle: carboxymethylcellulose (CMC)) was 97 % of control; the T/C (dose: 150.0 mg/kg/injection, schedule: Q01DX001 (ip), vehicle: carboxymethylcellulose (CMC)) was 100 % of control; the T/C (dose: 300.0 mg/kg/injection, schedule: Q01DX001 (ip), vehicle: carboxymethylcellulose (CMC)) is 103 % of control.

For `CC/C(C#N)=C(\C)C1CC1`, the T/C reads like this: (dose: 9.5 mg/kg/injection, schedule: Q01DX001 (ip), vehicle: other) 96 % of control; (dose: 19.0 mg/kg/injection, schedule: Q01DX001 (ip), vehicle: other) 96 % of control; (dose: 38.0 mg/kg/injection, schedule: Q01DX001 (ip), vehicle: other) 104 % of control.

As for `O=CC(=O)Nc1ccc(C(=O)O)c(O)c1`, the T/C is 95 % of control under setting [1], 95 % of control under setting [2] and 98 % of control under setting [3].

Regarding `O=[N+]([O-])c1ccc(S(=O)(=O)O)c([N+](=O)[O-])c1.[Ag]`, the T/C is 95 % of control (dose: 3.12 mg/kg/injection, schedule: Q01DX009 (ip), vehicle: DMSO); 97 % of control (dose: 6.25 mg/kg/injection, schedule: Q01DX009 (ip), vehicle: DMSO); 95 % of control (dose: 12.5 mg/kg/injection, schedule: Q01DX009 (ip), vehicle: DMSO); 93 % of control (dose: 12.5 mg/kg/injection, schedule: Q01DX009 (ip), vehicle: other); 104 % of control (dose: 12.5 mg/kg/injection, schedule: Q04DX003 (ip), vehicle: other); 98 % of control (dose: 25.0 mg/kg/injection, schedule: Q04DX003 (ip), vehicle: other). For the setting “dose: 50.0 mg/kg/injection, schedule: Q04DX003 (ip), vehicle: other”, the T/C is 103 % of control.

Consider `COC(=O)CCC(=O)c1cccc(C)c1`, for which the T/C is, setting by setting: under setting [4], 88 % of control; under setting [5], 99 % of control; under setting [6], 94 % of control.

Take `O=C1Nc2cc(C(F)(F)F)ccc2/C1=C/c1ccc(Cl)cc1`: the T/C runs as follows: (dose: 75.0 mg/kg/injection, schedule: Q01DX001 (ip), vehicle: saline) 92 % of control; (dose: 75.0 mg/kg/injection, schedule: Q04DX003 (ip), vehicle: saline) 96 % of control; (dose: 150.0 mg/kg/injection, schedule: Q01DX001 (ip), vehicle: saline) 97 % of control; (dose: 150.0 mg/kg/injection, schedule: Q04DX003 (ip), vehicle: saline) 100 % of control; (dose: 300.0 mg/kg/injection, schedule: Q01DX001 (ip), vehicle: saline) 97 % of control; (dose: 300.0 mg/kg/injection, schedule: Q04DX003 (ip), vehicle: saline) 94 % of control.
